Measured values as given in patent publication US10507209B2, “Quinazoline derivatives substituted by aniline, preparation method and use thereof” (XUANZHU PHARMA CO., LTD., priority 2010, dated 2019).
Where a name gives a salt, the structure may show the parent alone. Read-outs that look alike come from different tables or passages of the source. Marks after values point to notes of the source that are not given here. One block for each molecule: values may come before it.

How the values were obtained:
H1975 cells = assay: In vitro cellular inhibitory activity on H1975 (XTT); type: cell-based; conditions: Homo sapiens, NCI-H1975, 72 hours
Excerpt: Table 2 in vitro cellular inhibitory activities on H1975 (NSCLC, nonsmall-cell lung cancer)

Calu-3 cells = assay: In vitro cellular inhibitory activity on Calu-3 (XTT); type: cell-based; conditions: Homo sapiens, 72 hours
Excerpt: Table 3 in vitro cellular inhibitory activities on Calu-3 (NSCLC nonsmall-cell lung cancer)

A431 cells = assay: In vitro cellular inhibitory activity on A431 (XTT); type: cell-based; conditions: Homo sapiens, A-431, 72 h, read-out: IC50 A431 cells
[1] = tested on: human-derived LN-229 glioblastoma xenograft; assay: In vivo pharmacodynamic evaluation, human-derived LN-229 glioblastoma xenograft; set-up: species or system BALB/c nude mice; conditions: 28 days after the administration
5637 cells = assay: In vitro cellular inhibitory activity on 5637 bladder carcinoma cells (CTG kit); type: cell-based; conditions: Homo sapiens, 72 hours
Protocol: The effect of the compound to be tested on 5637 (bladder carcinoma) cell proliferation was tested using CTG kit.
535 μl DMSO was added into an EP tube filled with 3.32 mg of Compound 18 and evenly shaken (10 mM);
590 μl DMSO was added into an EP tube filled with 3.16 mg of Compound AZD9291 and evenly shaken (10 mM);
The compound was diluted with DMSO by 4-fold from 10 mM to 2.5 mM, 625 μM, 156 μM, 39 μM, 9.8 μM, 2.4 μM, 0.61 μM, 0.15 μM, 0.04 μM in turn.
Formulating a stock solution of a 10-fold compound: 2 μl 1000-fold Compound 18 or AZD9291 was respectively added into a 198 μl culture medium and evenly shaken.
1) Plating in the 384-well plate with 250 cells/well/22.5 ul;
2) After 24 hours, each well was added with 2.5 ul 10-fold drug which was well diluted to make the final concentration of 10 μM, 2.5 μM, 625 nM, 156 nM, 39 nM, 9.8 nM, 2.5 nM, 0.610 nM, 0.153 nM, 0.04 nM.
3) The plate was placed in the CO2 incubator and incubated at 37° C. for 72 hours
2) Each well was added with 25 ul CellTiter-Glo® agent, mixed for 2 minutes and placed at room temperature while being kept in darkness for 10 minutes.
3) Reading the […] using EnVision 2104 Multilabel Reader.

BT474 cells = assay: In vitro cellular inhibitory activity on BT474 mammary cancer cells (XTT); type: cell-based; conditions: Homo sapiens, BT-474, 72 hours
NCI-N87 cell = assay: In vitro cellular inhibitory activity on NCI-N87 gastric carcinoma cells (XTT); type: cell-based; conditions: Homo sapiens, read-out: IC50 NCI-N87 cell
[2] = tested on: human-derived xenograft model HN2170; assay: In vivo pharmacodynamic evaluation, head and neck cancer xenograft model HN2170; set-up: species or system BALB/c nude mice; conditions: for Tumor Volume (Day 0): Day 0 (grouping, baseline); for T/C / TGI / Tumor Volume: 25 days after the administration
Protocol: HN2170, head and neck cancer from a patient.
They were administered totally 25 days.

[3] = tested on: SKOV-3 human-derived xenografts model in ovarian cancer; assay: In vivo pharmacodynamic evaluation, SKOV-3 human-derived xenografts model in ovarian cancer; set-up: species or system BALB/c nude mice; conditions: 14 days after the administration
Protocol: The tumor was then stripped under sterile conditions to remove the necrotic tissues and select the well developed tumor tissues which were inoculated subcutaneously into an animal again. In this way the tumor tissues were subjected to passage for twice in the body of the mice. […] The tumor blocks were inoculated subcutaneously to the right coastal region of the mice with an inoculation needle. […] The tumor size was measured twice a week with an […] caliper.

[4] = tested on: gallbladder carcinoma xenografts model GL6899; assay: In vivo pharmacodynamic evaluation, gallbladder carcinoma xenografts model GL6899; set-up: species or system BALB/c nude mice
Protocol: GL6899, gallbladder carcinoma from a patient
Comparison between the two groups of data was tested by independent sample t test.

[5] = tested on: human-derived cholangiocarcinoma (10114) xenograft model; assay: In vivo pharmacodynamic evaluation, human-derived cholangiocarcinoma (10114) xenograft model; set-up: species or system BALB/c nude mice
Protocol: 10114, cholangiocarcinoma from a patient.
Tumor tissues of human cholangiocarcinoma (10114) were cut into tumor blocks of volume of 3 mm×3 mm×3 mm which were inoculated subcutaneously in mice. The tumor volume was observed and measured. […] The efficacy was evaluated according to the tumor growth inhibition (TGI).
The experimental data were analyzed using statistical software SPSS 20.0. The data associated with the tumor volume was analyzed with T-test. **P<0.05 compared with the control group represents significant statistical difference.

[6] = tested on: KYSE270 human esophageal carcinoma model; conditions: for Relative Tumor Volume / T/C / TGI / Tumor Volume: 21 days after the administration
[7] = 20 mg/kg p.o. once a day, 21 days
[8] = 20 mg/kg oral once a day, 21 days after the administration

- IC50 (H1975 cells): 157 nM
- IC50 (Calu-3 cells): 686 nM
- IC50 (A431 cells): 402 nM
Structure (SMILES): C=CC(=O)Nc1cc2c(Nc3ccc(F)c(Cl)c3)ncnc2cc1OCCCN1CCOCC1 [CI-1033 hydrochloride, reference compound]

- IC50 (H1975 cells): 306 nM
Structure (SMILES): C=CC(=O)Nc1cc2c(Nc3ccc(F)c(Cl)c3)ncnc2cc1OCC[C@@H]1[C@H]2CN(C)C[C@@H]12 [Compound 8]
- T/C ([1]; 30 mg/kg oral once a day): 21.3%
- TGI ([1]; 30 mg/kg oral once a day): 78.7%
- Tumor Volume ([1]; 30 mg/kg oral once a day): 121 ± 17 mm^3

Structure (SMILES): C=CC(=O)Nc1cc2c(Nc3ccc(F)c(Cl)c3)ncnc2cc1OCC1CC2(CCN(C)CC2)C1 [Compound 18, N-[4-(3-chloro-4-fluorophenylamino)-7-((7-methyl-7-azaspiro[3.5]nonan-2-yl)methoxy)quinazolin-6-yl]-acrylamide]
- IC50 (H1975 cells): 92.3 nM
- IC50 (Calu-3 cells): 38.2 nM
- IC50 (5637 cells): 38.6 nM
- IC50 (BT474 cells): 9.7 nM
- IC50 (NCI-N87 cell; NCI-N87, 72 hours, XTT): 7.1 nM
- Tumor Volume (Day 0) ([2]; 20 mg/kg group): 143.1 ± 22.9 mm^3
- T/C ([2]; 20 mg/kg oral once a day): 6.5%
- TGI ([2]; 20 mg/kg oral once a day): 93.5%
- Tumor Volume ([2]; 20 mg/kg oral once a day): 46.3 ± 10.6*** mm^3
- T/C ([1]; 10 mg/kg oral once a day): 45.6%
- TGI ([1]; 10 mg/kg oral once a day): 54.4%
- Tumor Volume ([1]; 10 mg/kg oral once a day): 260 ± 27 mm^3
- T/C ([1]; 20 mg/kg oral once a day): 34.0%
- TGI ([1]; 20 mg/kg oral once a day): 66.0%
- Tumor Volume ([1]; 20 mg/kg oral once a day): 191 ± 11 mm^3
- T/C ([3]; 10 mg/kg oral once a day): 49.1%
- TGI ([3]; 10 mg/kg oral once a day): 50.9%
- Tumor Volume ([3]; 10 mg/kg oral once a day): 798 ± 88 mm^3
- T/C ([3]; 20 mg/kg oral once a day): 32.1%
- TGI ([3]; 20 mg/kg oral once a day): 67.9%
- Tumor Volume ([3]; 20 mg/kg oral once a day): 540 ± 86 mm^3
- Tumor Volume on day 0 ([4]; 20 mg/kg group, day 0 (grouping, baseline)): 135.53 ± 9.60 mm^3
- T/C [4, 7]: 2.6%
- TGI [4, 7]: 97.4%
- Tumor Volume after adminstration of 21 days [4, 7]: 26.63 ± 2.37*** mm^3
- Tumor Volume On Day 0 ([5]; 20 mg/kg group, Day 0 (grouping, baseline)): 138.6 ± 8.9 mm^3
- Relative Tumor Volume [5, 8]: 77.13 ± 9.34%
- T/C [5, 8]: 18.1%
- TGI [5, 8]: 81.9%
- Tumor Volume [5, 8]: 107.53 ± 15.80*** mm^3
- Tolerability in mice with tumor ([6]; 10 mg/kg and 20 mg/kg): can tolerate the tested drugs well
- Relative Tumor Volume ([6]; 10 mg/kg oral once a day): 0.33 ± 0.05
- T/C ([6]; 10 mg/kg oral once a day): 2%
- TGI ([6]; 10 mg/kg oral once a day): 98%
- Tumor Volume ([6]; 10 mg/kg oral once a day): 40 ± 6 mm^3
- Relative Tumor Volume ([6]; 20 mg/kg oral once a day): 0.11 ± 0.02
- T/C ([6]; 20 mg/kg oral once a day): 1%
- TGI ([6]; 20 mg/kg oral once a day): 99%
- Tumor Volume ([6]; 20 mg/kg oral once a day): 14 ± 3 mm^3

- IC50 (H1975 cells): 104 nM
Structure (SMILES): C=CC(=O)Nc1cc2c(Nc3ccc(F)c(Cl)c3)ncnc2cc1OCCC1CC2(CCN(C)CC2)C1 [Compound 19 hydrochloride, N-[4-(3-chloro-4-fluorophenylamino)-7-(2-(7-methyl-7-azaspiro[3.5]nonan-2-yl)ethoxy)quinazolin-6-yl]-acrylamide hydrochloride]

- IC50 (H1975 cells): 3980 nM
- IC50 (Calu-3 cells): 1320 nM
Structure (SMILES): C#Cc1cccc(Nc2ncnc3cc(OCCOC)c(OCCOC)cc23)c1 [Erlotinib hydrochloride, erlotinib hydrochloride, reference compound]

- IC50 (H1975 cells): 4530 nM
- IC50 (Calu-3 cells): 94.3 nM
Structure (SMILES): CS(=O)(=O)CCNCc1ccc(-c2ccc3ncnc(Nc4ccc(OCc5cccc(F)c5)c(Cl)c4)c3c2)o1 [Lapatinib ditosylate, lapatinib ditosylate, reference compound]

- IC50 (NCI-N87 cell; NCI-N87, 72 h): 11.9 nM
Structure (SMILES): CS(=O)(=O)CCNCc1ccc(-c2ccc3ncnc(Nc4ccc(OCc5cccc(F)c5)c(Cl)c4)c3c2)o1 [Lapatinib, reference compound]
- T/C ([1]; 200 mg/kg oral once a day): 45.6%
- TGI ([1]; 200 mg/kg oral once a day): 54.4%
- Tumor Volume ([1]; 200 mg/kg oral once a day): 261 ± 42 mm^3
- T/C ([3]; 80 mg/kg oral once a day): 83.4%
- Tumor Volume ([3]; 80 mg/kg oral once a day): 1339 ± 167 mm^3

Structure (SMILES): CCOc1cc2ncc(C#N)c(Nc3ccc(OCc4ccccn4)c(Cl)c3)c2cc1NC(=O)/C=C/CN(C)C [Neratinib, reference compound]
- Tumor Volume (Day 0) ([2]; 80 mg/kg group): 142.4 ± 23.4 mm^3
- T/C ([2]; 80 mg/kg oral once a day): 7.2%
- TGI ([2]; 80 mg/kg oral once a day): 92.8%
- Tumor Volume ([2]; 80 mg/kg oral once a day): 53.7 ± 10.3*** mm^3
- T/C ([1]; 80 mg/kg oral once a day): 34.3%
- TGI ([1]; 80 mg/kg oral once a day): 65.7%
- Tumor Volume ([1]; 80 mg/kg oral once a day): 197 ± 20 mm^3
